According to the supplement of paper PMC10412643:

Legend:
Conditions in all cases: CAMHB, incubation time 20 h
ceftazidime = compound: CC(C)(O/N=C(\C(=O)N[C@@H]1C(=O)N2C(C(=O)[O-])=C(C[n+]3ccccc3)CS[C@H]12)c1csc(N)n1)C(=O)O [ceftazidime]
cefiderocol = compound: CC(C)(O/N=C(\C(=O)N[C@@H]1C(=O)N2C(C(=O)[O-])=C(C[N+]3(CCNC(=O)c4ccc(O)c(O)c4Cl)CCCC3)CS[C@H]12)c1csc(N)n1)C(=O)O [cefiderocol]
meropenem = compound: C[C@@H](O)[C@H]1C(=O)N2C(C(=O)O)=C(S[C@@H]3CN[C@H](C(=O)N(C)C)C3)[C@H](C)[C@H]12 [meropenem]

Test System | MIC (ceftazidime; avibactam 0 µg/mL) | MIC (ceftazidime; avibactam 8 µg/mL) | MIC (cefiderocol; avibactam 0 µg/mL) | MIC (cefiderocol; avibactam 8 µg/mL) | MIC (meropenem; avibactam 0 µg/mL) | MIC (meropenem; avibactam 8 µg/mL)
B. dolosa LM018941 | 16 µg/mL | 2 µg/mL | > 4 µg/mL | > 4 µg/mL | 16 µg/mL | 0.5 µg/mL
S. maltophilia 04 T22674 | 2 µg/mL | 2 µg/mL | 0.5 µg/mL | 0.5 µg/mL | 16 µg/mL | 16 µg/mL
B. multivorans VC15555 | 2 µg/mL | 2 µg/mL | > 4 µg/mL | > 4 µg/mL | 8 µg/mL | 4 µg/mL
P. aeruginosa PAO1 | 1 µg/mL | 1 µg/mL | 1 µg/mL | 1 µg/mL | 0.5 µg/mL | 0.5 µg/mL
B. cenocepacia 130723 | 16 µg/mL | 8 µg/mL | 0.5 µg/mL | 0.25 µg/mL | 4 µg/mL | 1 µg/mL
B. cenocepacia 110041 | – | – | 0.0625 µg/mL | 0.0625 µg/mL | 32 µg/mL | 4 µg/mL
B. cenocepacia G11815681 | 16 µg/mL | 8 µg/mL | 2 µg/mL | 0.5 µg/mL | 32 µg/mL | 2 µg/mL
P. aeruginosa 70 | 0.5 µg/mL | 0.5 µg/mL | 0.5 µg/mL | 0.5 µg/mL | 0.125 µg/mL | 0.125 µg/mL
B. gladioli VC14812 | 32 µg/mL | 16 µg/mL | 0.5 µg/mL | 0.5 µg/mL | 8 µg/mL | 8 µg/mL
B. cenocepacia VC14761 | 2 µg/mL | 2 µg/mL | 0.125 µg/mL | 0.0625 µg/mL | 4 µg/mL | 1 µg/mL
B. multivorans V1120157 | 2 µg/mL | 2 µg/mL | 0.125 µg/mL | 0.125 µg/mL | 1 µg/mL | 1 µg/mL
B. contaminans 21NG609698 | 16 µg/mL | – | 2 µg/mL | 2 µg/mL | 32 µg/mL | 8 µg/mL
A. xylosoxidans ACH02 | 2 µg/mL | 2 µg/mL | 0.25 µg/mL | 0.25 µg/mL | 1 µg/mL | 1 µg/mL
S. maltophilia 20NC580771 | > 128 µg/mL | > 128 µg/mL | 0.25 µg/mL | 0.25 µg/mL | > 64 µg/mL | > 64 µg/mL
B. gladioli VC19233 | – | 2 µg/mL | 0.25 µg/mL | 0.25 µg/mL | 1 µg/mL | 1 µg/mL
B. vietnamiensis VC11431 | 32 µg/mL | 2 µg/mL | 1 µg/mL | 0.125 µg/mL | 16 µg/mL | 1 µg/mL
B. multivorans 130034 | 8 µg/mL | 8 µg/mL | 0.125 µg/mL | 0.125 µg/mL | 8 µg/mL | 4 µg/mL
B. contaminans LMG23361 | 2 µg/mL | 2 µg/mL | 0.125 µg/mL | 0.125 µg/mL | 4 µg/mL | 0.5 µg/mL
B. cenocepacia K56-2 | 32 µg/mL | – | 0.125 µg/mL | 0.125 µg/mL | 16 µg/mL | 2 µg/mL
B. dolosa AU6940 | 16 µg/mL | 16 µg/mL | 2 µg/mL | 2 µg/mL | 32 µg/mL | 2 µg/mL
S. maltophilia K279a | 2 µg/mL | 1 µg/mL | 0.125 µg/mL | 0.125 µg/mL | 2 µg/mL | 2 µg/mL
B. multivorans C5393 | 8 µg/mL | – | 0.25 µg/mL | 0.25 µg/mL | 16 µg/mL | 1 µg/mL
B. dolosa AU2167 | 64 µg/mL | – | > 4 µg/mL | > 4 µg/mL | 32 µg/mL | 1 µg/mL
B. vietnamiensis CEP40 | – | 2 µg/mL | 0.125 µg/mL | 0.0625 µg/mL | 1 µg/mL | 1 µg/mL
P. aeruginosa 74 | 128 µg/mL | 2 µg/mL | > 4 µg/mL | > 4 µg/mL | 16 µg/mL | 2 µg/mL
B. cenocepacia F9141525 | 128 µg/mL | 16 µg/mL | 0.5 µg/mL | 0.5 µg/mL | 32 µg/mL | 4 µg/mL
P. aeruginosa 21NE72623 | 16 µg/mL | 2 µg/mL | > 4 µg/mL | > 4 µg/mL | 0.5 µg/mL | 0.125 µg/mL
B. cenocepacia F3071909 | 32 µg/mL | 32 µg/mL | > 4 µg/mL | > 4 µg/mL | 16 µg/mL | 2 µg/mL
